Drawing on ChEMBL document CHEMBL6120936, “Autophagy modulation in cancer therapy: Challenges coexist with opportunities” (Eur J Med Chem, 2024), this text covers EC50, IC50 and Ki for nine compounds.

Assay [1] can be described thus: Agonist activity at AMPK (unknown origin). The arrangement: species or system Homo sapiens.
In assay [2] the target is Phosphatidylinositol 4,5-bisphosphate 3-kinase catalytic subunit alpha isoform (Homo sapiens, UniProt P42336). The assay can be described thus: Inhibition of PI3K-p110alpha (unknown origin) extracted from baculovirus-infected Sf9 cells incubated for 1 hr by microbeta counter analysis.
Phosphatidylinositol 4,5-bisphosphate 3-kinase catalytic subunit alpha isoform, sequence (P42336 whole entry, canonical isoform): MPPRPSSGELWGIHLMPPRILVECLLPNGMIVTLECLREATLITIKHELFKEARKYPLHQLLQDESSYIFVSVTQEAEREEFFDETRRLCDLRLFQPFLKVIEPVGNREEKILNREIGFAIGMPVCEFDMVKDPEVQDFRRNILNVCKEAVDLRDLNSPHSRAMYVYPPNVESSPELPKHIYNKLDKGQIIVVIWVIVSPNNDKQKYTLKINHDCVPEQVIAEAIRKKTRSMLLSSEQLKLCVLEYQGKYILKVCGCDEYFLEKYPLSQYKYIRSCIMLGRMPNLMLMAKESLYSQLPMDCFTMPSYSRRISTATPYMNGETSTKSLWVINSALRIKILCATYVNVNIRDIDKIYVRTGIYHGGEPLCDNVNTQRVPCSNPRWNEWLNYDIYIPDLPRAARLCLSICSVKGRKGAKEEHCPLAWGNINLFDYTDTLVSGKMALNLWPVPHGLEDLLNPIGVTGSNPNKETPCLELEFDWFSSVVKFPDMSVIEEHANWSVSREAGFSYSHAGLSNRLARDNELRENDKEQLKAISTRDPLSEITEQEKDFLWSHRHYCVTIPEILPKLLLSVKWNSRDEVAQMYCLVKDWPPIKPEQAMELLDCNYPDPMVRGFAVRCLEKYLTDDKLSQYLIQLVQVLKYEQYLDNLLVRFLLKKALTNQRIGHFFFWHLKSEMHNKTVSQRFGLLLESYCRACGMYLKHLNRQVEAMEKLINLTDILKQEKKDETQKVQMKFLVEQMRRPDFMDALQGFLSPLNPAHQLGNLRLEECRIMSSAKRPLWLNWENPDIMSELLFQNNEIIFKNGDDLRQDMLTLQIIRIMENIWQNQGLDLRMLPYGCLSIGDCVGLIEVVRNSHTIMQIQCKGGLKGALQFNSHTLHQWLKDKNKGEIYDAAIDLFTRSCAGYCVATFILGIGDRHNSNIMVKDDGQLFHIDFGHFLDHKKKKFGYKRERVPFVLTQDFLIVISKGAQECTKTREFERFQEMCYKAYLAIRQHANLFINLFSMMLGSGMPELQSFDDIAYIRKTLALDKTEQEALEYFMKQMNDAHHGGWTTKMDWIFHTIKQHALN
Assay [3] deals with Mitogen-activated protein kinase 3 (Homo sapiens, UniProt P27361). Nature of the assay: Inhibition of ERK1 (unknown origin).
Mitogen-activated protein kinase 3, sequence (P27361 whole entry): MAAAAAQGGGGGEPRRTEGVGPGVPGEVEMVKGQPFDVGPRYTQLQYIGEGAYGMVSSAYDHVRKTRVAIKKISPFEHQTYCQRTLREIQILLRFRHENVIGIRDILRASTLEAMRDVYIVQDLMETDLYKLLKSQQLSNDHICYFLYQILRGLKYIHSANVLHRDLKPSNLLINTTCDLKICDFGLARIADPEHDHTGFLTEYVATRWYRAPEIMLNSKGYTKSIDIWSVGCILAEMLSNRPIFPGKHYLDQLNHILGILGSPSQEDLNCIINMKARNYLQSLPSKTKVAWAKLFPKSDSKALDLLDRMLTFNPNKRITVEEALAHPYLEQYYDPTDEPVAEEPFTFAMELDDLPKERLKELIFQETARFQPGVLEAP
Assay [4] in a line: Binding affinity to AMPK (unknown origin) assessed as inhibition constant. Details: species or system Homo sapiens.
Assay [5] deals with T1, Serine/threonine-protein kinase ULK2 (Homo sapiens, UniProt Q8IYT8).
T1 sequence (Q8IYT8 whole entry): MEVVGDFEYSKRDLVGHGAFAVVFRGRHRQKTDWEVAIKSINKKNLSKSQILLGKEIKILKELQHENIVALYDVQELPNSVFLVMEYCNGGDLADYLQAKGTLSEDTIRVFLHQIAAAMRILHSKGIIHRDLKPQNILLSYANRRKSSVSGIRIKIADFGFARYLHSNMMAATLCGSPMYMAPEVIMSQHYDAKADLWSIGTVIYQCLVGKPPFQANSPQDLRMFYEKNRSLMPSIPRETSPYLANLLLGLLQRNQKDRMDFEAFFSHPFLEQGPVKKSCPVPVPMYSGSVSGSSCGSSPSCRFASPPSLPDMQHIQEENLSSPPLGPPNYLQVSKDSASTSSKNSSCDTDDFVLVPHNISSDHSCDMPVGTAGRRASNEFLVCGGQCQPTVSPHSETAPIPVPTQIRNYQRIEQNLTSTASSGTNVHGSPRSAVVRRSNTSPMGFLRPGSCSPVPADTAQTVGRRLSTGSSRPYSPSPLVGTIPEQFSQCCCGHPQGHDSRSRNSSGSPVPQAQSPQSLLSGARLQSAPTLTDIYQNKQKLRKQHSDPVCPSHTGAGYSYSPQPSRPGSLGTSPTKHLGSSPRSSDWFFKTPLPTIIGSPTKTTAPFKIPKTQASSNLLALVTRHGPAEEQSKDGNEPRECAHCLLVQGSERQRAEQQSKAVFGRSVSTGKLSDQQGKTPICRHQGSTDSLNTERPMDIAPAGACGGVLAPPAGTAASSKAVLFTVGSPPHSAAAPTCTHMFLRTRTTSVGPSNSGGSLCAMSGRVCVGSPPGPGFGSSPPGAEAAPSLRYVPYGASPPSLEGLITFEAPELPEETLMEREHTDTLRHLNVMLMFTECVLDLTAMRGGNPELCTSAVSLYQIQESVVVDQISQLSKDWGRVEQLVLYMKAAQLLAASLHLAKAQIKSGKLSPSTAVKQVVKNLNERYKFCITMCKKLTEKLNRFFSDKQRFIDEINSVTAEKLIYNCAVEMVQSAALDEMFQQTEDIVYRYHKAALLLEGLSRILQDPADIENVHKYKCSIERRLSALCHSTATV
Nature of the assay: Inhibition of ULK2 (unknown origin).

For assay [6], the target named is Phosphatidylinositol 4,5-bisphosphate 3-kinase catalytic subunit gamma isoform (Homo sapiens, UniProt P48736). Nature of the assay: Inhibition of PI3K p120gamma (unknown origin).
Phosphatidylinositol 4,5-bisphosphate 3-kinase catalytic subunit gamma isoform, sequence (P48736 whole entry, canonical isoform): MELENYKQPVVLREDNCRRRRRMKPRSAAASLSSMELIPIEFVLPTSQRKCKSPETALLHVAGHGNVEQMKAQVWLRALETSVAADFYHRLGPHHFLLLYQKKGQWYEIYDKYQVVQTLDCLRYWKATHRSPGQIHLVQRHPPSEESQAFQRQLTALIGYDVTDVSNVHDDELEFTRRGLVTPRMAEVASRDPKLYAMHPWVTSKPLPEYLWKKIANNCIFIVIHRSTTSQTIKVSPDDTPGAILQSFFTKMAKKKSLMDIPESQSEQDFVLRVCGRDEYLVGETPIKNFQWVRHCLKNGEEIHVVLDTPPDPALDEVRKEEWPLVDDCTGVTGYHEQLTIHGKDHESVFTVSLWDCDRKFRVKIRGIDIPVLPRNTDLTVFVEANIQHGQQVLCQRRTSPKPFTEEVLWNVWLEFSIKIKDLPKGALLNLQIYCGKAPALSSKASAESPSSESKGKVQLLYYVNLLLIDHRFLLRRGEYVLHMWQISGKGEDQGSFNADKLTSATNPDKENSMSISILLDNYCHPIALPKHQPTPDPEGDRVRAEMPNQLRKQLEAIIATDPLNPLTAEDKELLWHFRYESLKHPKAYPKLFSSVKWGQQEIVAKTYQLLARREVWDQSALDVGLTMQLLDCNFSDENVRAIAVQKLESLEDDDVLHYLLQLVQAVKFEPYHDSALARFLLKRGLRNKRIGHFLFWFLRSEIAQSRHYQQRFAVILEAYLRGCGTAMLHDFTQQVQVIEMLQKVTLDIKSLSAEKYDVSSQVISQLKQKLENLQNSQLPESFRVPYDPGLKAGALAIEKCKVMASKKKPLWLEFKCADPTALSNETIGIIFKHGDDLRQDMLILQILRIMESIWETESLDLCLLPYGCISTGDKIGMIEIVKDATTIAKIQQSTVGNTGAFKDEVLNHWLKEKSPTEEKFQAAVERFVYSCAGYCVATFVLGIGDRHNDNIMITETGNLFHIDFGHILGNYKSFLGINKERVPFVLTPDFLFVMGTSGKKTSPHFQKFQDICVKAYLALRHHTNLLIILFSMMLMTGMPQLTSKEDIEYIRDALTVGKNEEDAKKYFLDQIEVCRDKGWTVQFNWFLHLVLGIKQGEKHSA
In assay [7] the target is T2, Phosphatidylinositol 4,5-bisphosphate 3-kinase catalytic subunit delta isoform (Homo sapiens, UniProt O00329).
T2 sequence (O00329 whole entry): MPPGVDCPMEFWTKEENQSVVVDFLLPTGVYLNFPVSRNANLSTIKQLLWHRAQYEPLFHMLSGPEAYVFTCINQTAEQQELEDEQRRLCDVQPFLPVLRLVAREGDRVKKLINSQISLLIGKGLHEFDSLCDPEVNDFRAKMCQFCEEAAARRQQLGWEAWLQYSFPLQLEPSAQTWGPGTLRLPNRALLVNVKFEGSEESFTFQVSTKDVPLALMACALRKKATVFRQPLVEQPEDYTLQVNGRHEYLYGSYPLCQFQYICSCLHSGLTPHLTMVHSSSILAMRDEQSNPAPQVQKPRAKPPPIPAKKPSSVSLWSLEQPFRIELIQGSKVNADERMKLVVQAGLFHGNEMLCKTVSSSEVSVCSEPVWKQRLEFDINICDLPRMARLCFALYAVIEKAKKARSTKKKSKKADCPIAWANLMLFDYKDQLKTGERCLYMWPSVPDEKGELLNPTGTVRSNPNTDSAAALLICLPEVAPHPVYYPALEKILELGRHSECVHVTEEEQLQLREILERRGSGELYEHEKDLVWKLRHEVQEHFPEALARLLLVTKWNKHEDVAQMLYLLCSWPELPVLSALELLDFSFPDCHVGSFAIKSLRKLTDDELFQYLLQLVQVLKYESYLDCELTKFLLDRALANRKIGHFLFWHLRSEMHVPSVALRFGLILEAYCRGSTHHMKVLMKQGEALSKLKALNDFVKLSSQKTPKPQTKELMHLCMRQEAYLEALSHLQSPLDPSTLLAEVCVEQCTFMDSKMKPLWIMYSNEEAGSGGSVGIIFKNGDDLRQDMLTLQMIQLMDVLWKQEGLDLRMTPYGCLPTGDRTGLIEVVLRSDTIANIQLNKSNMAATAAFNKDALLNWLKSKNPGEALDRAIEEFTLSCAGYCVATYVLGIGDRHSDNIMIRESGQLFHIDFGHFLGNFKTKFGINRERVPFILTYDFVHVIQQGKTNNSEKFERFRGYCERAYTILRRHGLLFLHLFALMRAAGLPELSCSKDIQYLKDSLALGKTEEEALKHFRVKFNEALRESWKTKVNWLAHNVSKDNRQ
The assay can be described thus: Inhibition of PI3Kdelta (unknown origin).

Assay [8] has as its target T3, Serine/threonine-protein kinase ULK1 (Homo sapiens, UniProt O75385).
T3 sequence (O75385 whole entry): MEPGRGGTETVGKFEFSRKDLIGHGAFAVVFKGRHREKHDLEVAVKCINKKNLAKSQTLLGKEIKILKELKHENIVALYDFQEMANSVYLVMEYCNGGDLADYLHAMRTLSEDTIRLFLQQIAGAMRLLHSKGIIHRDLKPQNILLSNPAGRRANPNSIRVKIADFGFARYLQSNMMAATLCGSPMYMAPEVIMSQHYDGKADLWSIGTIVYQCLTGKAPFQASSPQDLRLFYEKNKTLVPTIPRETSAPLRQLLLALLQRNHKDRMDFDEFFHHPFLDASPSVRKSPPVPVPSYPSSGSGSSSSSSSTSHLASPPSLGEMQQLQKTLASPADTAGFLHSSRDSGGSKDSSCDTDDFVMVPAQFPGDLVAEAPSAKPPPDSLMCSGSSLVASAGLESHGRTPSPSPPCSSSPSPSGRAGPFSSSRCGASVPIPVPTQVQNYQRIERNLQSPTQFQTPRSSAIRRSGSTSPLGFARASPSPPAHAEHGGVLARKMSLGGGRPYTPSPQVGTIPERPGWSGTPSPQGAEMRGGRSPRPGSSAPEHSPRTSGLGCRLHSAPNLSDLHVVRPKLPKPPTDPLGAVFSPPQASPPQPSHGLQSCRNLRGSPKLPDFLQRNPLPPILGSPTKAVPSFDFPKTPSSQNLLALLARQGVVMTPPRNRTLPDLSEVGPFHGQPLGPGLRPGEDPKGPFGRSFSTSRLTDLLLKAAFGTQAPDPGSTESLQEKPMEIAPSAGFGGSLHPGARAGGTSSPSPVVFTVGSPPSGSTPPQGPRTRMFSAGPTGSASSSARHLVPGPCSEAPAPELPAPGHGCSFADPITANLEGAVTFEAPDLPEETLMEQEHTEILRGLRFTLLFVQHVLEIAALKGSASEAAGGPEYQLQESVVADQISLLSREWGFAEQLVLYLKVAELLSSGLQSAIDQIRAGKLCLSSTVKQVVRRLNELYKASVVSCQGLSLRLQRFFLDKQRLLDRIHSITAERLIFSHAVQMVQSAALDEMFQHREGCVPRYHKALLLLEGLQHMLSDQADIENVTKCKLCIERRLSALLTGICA
The assay can be described thus: Agonist activity at ULK1 (unknown origin).

For orientation: EC50 means the concentration giving half of the maximal effect. Read a high EC50 as a need for much substance. On to `N#Cc1c(O)c2c(-c3ccccc3)csc2[nH]c1=O`, for which it took 38000 nM to reach a half-maximal effect in assay [1] (EC50).
The IC50 is the midpoint of a concentration-inhibition curve. Low readings indicate inhibition by little substance, high ones a need for much substance. For `CC(C)NC[C@@H](C(=O)N1CCN(c2ncnc3c2[C@H](C)C[C@H]3O)CC1)c1ccc(Cl)cc1` [IPATASERTIB], the IC50 in assay [2] was 1400 nM.
As for `COc1ccc([C@H]2OC[C@H]3[C@@H]2CO[C@@H]3c2cc(OC)c(OC)c(OC)c2)cc1OC`, the IC50 in assay [3] came to 87 nM. This lies in the double-digit nanomolar range.
`N#Cc1c(O)c2c(-c3ccc(-c4ccccc4O)cc3)csc2[nH]c1=O` gave an EC50 in assay [1] of 800 nM.
The term Ki denotes a dissociation constant, usually derived from enzyme kinetics or from competition with a known ligand. With `c1cc(-c2cnn3cc(-c4ccc(OCCN5CCCCC5)cc4)cnc23)ccn1` [DORSOMORPHIN], in assay [4], the Ki amounted to 109 nM.
With `CCc1cc(N2CCN(C)CC2)ccc1Nc1ncc(C(F)(F)F)c(NCCCN2CCOCCC2=O)n1` [INLEXISERTIB], the concentration for half-maximal inhibition (IC50) in assay [5] came out at 9 nM.
On to `C=CCN(/C=C1/C(=O)O[C@H](COC)[C@@]2(C)C1=C(O)C(=O)C1=C2[C@H](OC(C)=O)C[C@]2(C)C(=O)CC[C@@H]12)CC=C` [SONOLISIB], for which the IC50 in assay [2] stood at 0.1 nM; in assay [6] it was 1 nM; in assay [7] it was 2.9 nM.
Regarding `O=C(Nc1ccc(F)cc1F)[C@H](NC(=S)Nc1cc(C(F)(F)F)cc(C(F)(F)F)c1)c1ccccc1`, the EC50 in assay [8] is 24.1 nM.
With `Cc1nc(-c2cn3c(n2)-c2ccc(-c4cnn(C(C)(C)C(N)=O)c4)cc2OCC3)n(C(C)C)n1` [TASELISIB], inhibition in assay [6] was half-maximal at 0.91 nM (IC50).
